From patent EP4722219A1 (Gan & Lee Pharmaceuticals Co., Ltd., priority 2023, dated 2024) come the findings set out here.

Holding throughout (type): cell-based
One test has as its target T1, AR protein (Homo sapiens, UniProt P10275, T878A).
T1 construct: host or cells: LNCaP FGC
T1 sequence (P10275 1-920 T878A): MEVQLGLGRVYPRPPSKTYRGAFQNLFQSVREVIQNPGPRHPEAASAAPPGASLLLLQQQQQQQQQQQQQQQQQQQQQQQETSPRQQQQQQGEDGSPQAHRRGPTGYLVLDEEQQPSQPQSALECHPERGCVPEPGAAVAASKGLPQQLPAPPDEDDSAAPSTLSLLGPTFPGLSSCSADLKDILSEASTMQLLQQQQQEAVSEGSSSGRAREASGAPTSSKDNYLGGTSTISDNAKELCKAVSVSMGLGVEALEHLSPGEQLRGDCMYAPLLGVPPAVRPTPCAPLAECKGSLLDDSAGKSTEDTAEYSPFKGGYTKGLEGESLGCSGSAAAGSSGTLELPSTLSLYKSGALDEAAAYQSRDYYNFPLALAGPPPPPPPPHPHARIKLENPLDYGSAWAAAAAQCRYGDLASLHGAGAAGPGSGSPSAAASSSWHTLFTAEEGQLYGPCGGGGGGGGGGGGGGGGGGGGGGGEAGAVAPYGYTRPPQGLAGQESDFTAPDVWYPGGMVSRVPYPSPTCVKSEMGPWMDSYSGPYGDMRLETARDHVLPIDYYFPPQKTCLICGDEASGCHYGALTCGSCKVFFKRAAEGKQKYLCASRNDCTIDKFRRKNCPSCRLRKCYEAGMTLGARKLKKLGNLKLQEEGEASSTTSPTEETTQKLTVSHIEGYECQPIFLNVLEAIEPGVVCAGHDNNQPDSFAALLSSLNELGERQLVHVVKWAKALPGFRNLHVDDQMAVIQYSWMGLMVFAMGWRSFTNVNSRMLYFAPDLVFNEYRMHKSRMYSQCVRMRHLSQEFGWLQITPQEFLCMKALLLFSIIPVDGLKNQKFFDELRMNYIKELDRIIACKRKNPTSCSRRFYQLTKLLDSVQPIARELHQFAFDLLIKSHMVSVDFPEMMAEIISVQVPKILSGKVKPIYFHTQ
The test is described as follows: AR protein degradation in LNCaP cells (Western blot). The conditions noted are these: 8 hours; for Degradation of AR protein in LNCaP cells, 10 nM (%) / percent AR protein degradation at a fixed concentration at 0.01 µM: 10 nM; for Degradation of AR protein in LNCaP cells, 100 nM (%) / percent AR protein degradation at a fixed concentration at 0.1 µM: 100 nM. Put shortly:
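AR degradation rate derived from Western blot band densitometry, referenced to GAPDH, using total lysates of LNCaP cells treated 8 h with compound versus solvent control. Detection used infrared dual-color imaging after SDS-PAGE and PVDF transfer.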

Another test has as its system LNCaP cells. Kind of test: Inhibition of LNCaP cell proliferation (WST-8). The conditions noted are these: LNCaP FGC cells, 96 hours. Put shortly:
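WST-8 absorbance at 450 nm measured proliferation after 96 h of compound exposure at 37 °C, 5% CO2. Dosing used nine 5-fold dilutions from a 10 µM top final concentration, applied to cells cultured overnight beforehand.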
For orientation: Formazan colour is commonly taken as a measure of viable cells.

For a further test, the system named is VCaP cells. Kind of test: Inhibition of VCaP cell proliferation (WST-8). The note with it: 168 hours. Put shortly: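 Proliferation was read on day 9 as WST-8 absorbance at 450 nm after VCaP cells (15,000/well, DMEM/10% FBS, 37°C) were exposed from day 2 to compound at 9 points, 5-fold serial dilution, top final concentration 10 µM.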

Usually IC50 stands for the midpoint of a concentration-inhibition curve. With `COc1cc(O[C@H]2C(C)(C)[C@H](NC(=O)c3ccc(N4CCC(F)(CN5CCC6(CC5)COc5c6ccc(C(=O)N[C@H]6CCC(=O)NC6=O)c5F)CC4)cc3)C2(C)C)ccc1C#N` [A-P-84], on AR protein, the “Degradation of AR protein in LNCaP cells, 10 nM (%)” value (from here on “Degradation … 10 nM (%)”) is -6%. Also, the “Degradation of AR protein in LNCaP cells, 100 nM (%)” value (shortened to “Degradation … 100 nM (%)”) on AR protein is 33%. Also, the IC50 in the test on LNCaP cells (Homo sapiens) is 0.11 µM; with VCaP cells (Homo sapiens), 490 nM.

For the compound `COc1cc(O[C@H]2C(C)(C)[C@H](NC(=O)c3ccc(N4CCC(CN5CCC6(CC5)COc5c6ccc(C(=O)N[C@H]6CCC(=O)NC6=O)c5F)CC4)cc3)C2(C)C)ccc1C#N` [A-P-83], at AR protein, the “Degradation … 10 nM (%)” value stood at 41% and the “Degradation … 100 nM (%)” value was determined as 65%. For the same compound, half-maximal inhibition with LNCaP cells (Homo sapiens) (IC50) required 0.71 µM. In the test with VCaP cells (Homo sapiens), 2580 nM corresponded to half-maximal inhibition (IC50).

As for `COc1cc(O[C@H]2C(C)(C)[C@H](NC(=O)c3ccc(N4CCC(CN5CCC6(CCc7cc(F)c(C(=O)N[C@H]8CCC(=O)NC8=O)cc7O6)CC5)CC4)cc3)C2(C)C)ccc1C#N` [A-P-39], on AR protein, the “Degradation … 10 nM (%)” value was 22% and the “Degradation … 100 nM (%)” value came out at 39%. This compound had an IC50 in the test with LNCaP cells (Homo sapiens) of 12.4 µM. In the test on VCaP cells (Homo sapiens), the IC50 is greater than 10000 nM.

Turning to `COc1cc(O[C@H]2C(C)(C)[C@H](NC(=O)c3ccc(N4CCC5(CC4)CC(N4CCC6(CCc7cc(C(=O)N[C@H]8CCC(=O)NC8=O)c(F)cc7O6)CC4)C5)cc3)C2(C)C)ccc1C#N` [A-P-37, 1'-(7-(4-(((1R,3R)-3-(4-cyano-3-methoxyphenoxy)-2,2,4,4-tetramethylcyclobutyl)carbamoyl)phenyl)-7-azaspiro[3.5]nonan-2-yl)-N-((S)-2,6-dioxopiperidin-3-yl)-7-fluorospiro[chroman-2,4'-piperidin]-6-carboxamide], on AR protein, the “Degradation … 10 nM (%)” value was 10% and the “Degradation … 100 nM (%)” value is given as 63%. For the same compound, the half-maximal inhibitory concentration (IC50) in the test on LNCaP cells (Homo sapiens) was 2.23 µM. The same compound returned a half-inhibitory concentration (IC50) in the test with VCaP cells (Homo sapiens) of 2890 nM.

With `COc1cc(O[C@H]2C(C)(C)[C@H](NC(=O)c3ccc(N4CCC(N5CCC6(CC5)COc5c6ccc6c5n(C)c(=O)n6C5CCC(=O)NC5=O)CC4)cc3)C2(C)C)ccc1C#N` (some centres unmarked) [A-P-29], on AR protein, the percent AR protein degradation at a fixed concentration at 0.01 µM was found to be 6% and the percent AR protein degradation at a fixed concentration at 0.1 µM was -27%. Also, it took 15.1 µM to reach half-maximal inhibition in the test with LNCaP cells (Homo sapiens) (IC50). In the test with VCaP cells (Homo sapiens), this compound showed an IC50 of 19 nM.

For `COc1cc(O[C@H]2C(C)(C)[C@H](NC(=O)c3ccc(N4CCC(C)(CN5CCC6(CCc7cc(F)c(C(=O)N[C@H]8CCC(=O)NC8=O)cc7O6)CC5)CC4)cc3)C2(C)C)ccc1C#N` [A-P-38, 1-(1-(4-((1R,3R)-3-((4-cyano-3-methoxyphenoxy)-2,2,4,4-tetramethylcyclobutyl)carbamoyl)phenyl)-4-methylpiperidin-4-methyl)-N-((S)-2,6-dioxopiperidin-3-yl)-6-fluorospiro[chroman-2,4'-piperidin]-7-carboxamide], the “Degradation … 10 nM (%)” value at AR protein is -2%. Further, the “Degradation … 100 nM (%)” value at AR protein was found to be 0%. In addition, the figures for the half-maximal inhibitory concentration (IC50) with LNCaP cells (Homo sapiens) and in the test on VCaP cells (Homo sapiens) were 1.49 µM and greater than 10000 nM, respectively.

With `C[C@H]1CC2(CCN(c3ccc(N4CCC(CN5CCC6(CCc7cc(C(=O)N[C@H]8CCC(=O)NC8=O)c(F)cc7O6)CC5)CC4)cc3)CC2)CN1c1ccc(C#N)c(Cl)c1` [A-P-42, 1'-((1-(4-((S)-2-(3-chloro-4-cyanophenyl)-3-methyl-2,8-diazaspiro[4.5]decan-8-yl)phenyl)piperidin-4-yl)methyl)-N-((S)-2,6-dioxopiperidin-3-yl)-7-fluorospiro[chroman-2,4'-piperidin]-6-carboxamide], the percent AR protein degradation at a fixed concentration at 0.01 µM at AR protein amounted to 44%. Also, on AR protein, the percent AR protein degradation at a fixed concentration at 0.1 µM came to 77%. Also, the concentration for half-maximal inhibition (IC50) in the test on LNCaP cells (Homo sapiens) is 0.19 µM; in the test on VCaP cells (Homo sapiens), greater than 10000 nM.

In the case of `COc1cc(O[C@H]2C(C)(C)[C@H](NC(=O)c3ccc(N4CCC(F)(CN5CCC6(CCc7cc(C(=O)N[C@H]8CCC(=O)NC8=O)c(F)cc7O6)CC5)CC4)cc3)C2(C)C)ccc1C#N` [A-P-52, 1'-((1-(4-(((1r,3r)-3-(4-cyano-3-methoxyphenoxy)-2,2,4,4-tetramethylcyclobutyl)carbamoyl)phenyl)-4-fluoropiperidin-4-yl)methyl)-N-((S)-2,6-dioxopiperidin-3-yl)-7-fluorospiro[chroman-2,4'-piperidin]-6-carboxamide], at AR protein, the “Degradation … 10 nM (%)” value was -56% and the “Degradation … 100 nM (%)” value is listed as 23%. The compound further displayed an IC50 in the test with LNCaP cells (Homo sapiens) of 0.2 µM. The compound also returned an IC50 with VCaP cells (Homo sapiens) of 4240 nM.

Consider `COc1cc(O[C@H]2C(C)(C)[C@H](NC(=O)c3ccc(N4CCC(CN5CC6(CCC7(CC6)COc6c7ccc7c6CN(C6CCC(=O)NC6=O)C7=O)C5)CC4)cc3)C2(C)C)ccc1C#N` (relative stereo) [A-P-3], for which, at AR protein, the “Degradation … 10 nM (%)” value was found to be 64% and the “Degradation … 100 nM (%)” value came to 65%. In the test on LNCaP cells (Homo sapiens), this compound came in with an IC50 of 3.43 µM. For the same compound, the midpoint of inhibition with VCaP cells (Homo sapiens), the IC50, lay at 0.017 nM.

For the compound `COc1cc(O[C@H]2C(C)(C)[C@H](NC(=O)c3ccc(N4CCC(F)(CN5CCC6(CCc7cc(F)c(C(=O)N[C@H]8CCC(=O)NC8=O)cc7O6)CC5)CC4)cc3)C2(C)C)ccc1C#N` [A-P-41], the “Degradation … 10 nM (%)” value on AR protein was -37%. Moreover, the “Degradation … 100 nM (%)” value on AR protein is listed as -31%. The half-inhibitory concentration (IC50) was 18.6 µM with LNCaP cells (Homo sapiens) and greater than 10000 nM with VCaP cells (Homo sapiens).

As to `COc1cc(O[C@H]2C(C)(C)[C@H](NC(=O)c3ccc(N4CCC(C)(CN5CCC6(CCc7cc(C(=O)N[C@H]8CCC(=O)NC8=O)c(F)cc7O6)CC5)CC4)nn3)C2(C)C)ccc1C#N` [A-P-48, 1'-((1-(6-(((1R,3R)-3-(4-cyano-3-methoxyphenoxy)-2,2,4,4-tetramethylcyclobutyl)carbamoyl)pyridazin-3-yl)-4-methylpiperidin-4-yl)methyl)-N-((S)-2,6-dioxopiperidin-3-yl)-7-fluorospiro[chroman-2,4'-piperidin]-6-carboxamide], the “Degradation … 10 nM (%)” value on AR protein was 45%. Further, the “Degradation … 100 nM (%)” value on AR protein was 63%. Besides, the IC50 with LNCaP cells (Homo sapiens) was determined as 0.86 µM; with VCaP cells (Homo sapiens) it was 330 nM.

With `COc1cc(O[C@H]2C(C)(C)[C@H](NC(=O)c3ccc(N4CCC(C)(CN5CCC6(CC5)COc5cc7c(cc56)n(C)c(=O)n7C5CCC(=O)NC5=O)CC4)cc3)C2(C)C)ccc1C#N` (relative stereo) [A-P-16], on AR protein, the “Degradation … 10 nM (%)” value was found to be 49% and the “Degradation … 100 nM (%)” value was found to be 29%. Also, in the test with LNCaP cells (Homo sapiens), the half-inhibitory concentration (IC50) was greater than 90 µM. Also, inhibition with VCaP cells (Homo sapiens) was half-maximal at 1 nM (IC50).

Consider “(R)-3-((1-(4-(((S)-2-(3-chloro-4-cyanophenyl)-3-methyl-2,8-diazaspiro[4.5]decan-8-yl)phenyl)piperidin-4-yl)methyl)-N-(((S)-2,6-dioxopiperidin-3-yl)-1,2,3,4,4a,5-hexahydrobenzo[b]pyrazi no[1,2-d][1,4]oxazine-8-carboxamide [A-P-58]”, for which the “Degradation … 10 nM (%)” value at AR protein came to 63%. The “Degradation … 100 nM (%)” value at AR protein is on record as 87%. For the same compound, the IC50 came out at 0.51 µM with LNCaP cells and 1830 nM in the test on VCaP cells.

As for `C[C@H]1CC2(CCN(c3ccc(C(=O)N4CCC(CN5CCN6c7ccc(C(=O)N[C@H]8CCC(=O)NC8=O)cc7OC[C@@H]6C5)CC4)cc3)CC2)CN1c1ccc(C#N)c(Cl)c1` [A-P-69], at AR protein, the “Degradation … 10 nM (%)” value is on record as 52% and the “Degradation … 100 nM (%)” value was found to be 79%. For the same compound, it took 0.28 µM to reach half-maximal inhibition in the test with LNCaP cells (Homo sapiens) (IC50). Moreover, in the test with VCaP cells (Homo sapiens), half-maximal inhibition (IC50) was put at 1320 nM.
